Test results published in patent US6943183B2 (Pfizer Inc, priority 2000, dated 2005).

target: T1, SF9 affinity purified rat FPT (Rattus norvegicus, UniProt Q02293+Q04631); assay: PFT (FPT) inhibitory activity assay, radiolabeled farnesyl pyrophosphate and biotinyl peptide, streptavidin beads; type: biochemical; conditions: HEPES buffer pH 7.4, 30° C., 30 minutes; read-out: FTase IC50
T1 construct: made in house; host or cells: Sf9 insect cells
Method: The PFT or FPT inhibitory activity of compounds of the present invention were assayed in HEPES buffer (pH 7.4) containing 5 mM potassium phosphate and 20 μM ZnCl2. The solution also contained 5 mM DTT (dithiothreitol), 5 mM MgCl2, and 0.1% PEG 8000. Assays were performed in 96 well plates (Wallec) and employed solutions composed of varying concentrations of a compound of the present invention in 10% DMSO (dimethylsulfoxide). […] After incubation at 30° C. for 30 minutes, the reaction was terminated by diluting the reaction 2.5-fold with a stop buffer containing 1.5 M magnesium acetate, 0.2 M H3PO4, 0.5% BSA (bovine serum albumin), and strepavidin beads (Amersham) at a concentration of 1.3 mg/mL. […] The assay was also carried out without 5 mM potassium phosphate.

| SMILES | IC50 |
| --- | --- |
| CC(O)CNC(=O)c1ccccc1S(=O)(=O)Cc1c(O[C@H](Cn2ccnc2)c2ccccc2)ccc2c1CCCC2=O (some centres unmarked) [Compound 255] | 0.2 nM |
| COCc1c(O[C@H](Cn2ccnc2)c2ccccc2)ccc2c1CCCC2=O [Compound 64] | 11 nM |
| O=C1CCCc2c1ccc(O[C@H](Cn1ccnc1)c1ccccc1)c2COc1ccc(F)cc1 [Compound 103, 6-((1S)-2-Imidazolyl-1-phenylethoxy)-5-[(4-fluorophenoxy)methyl]-2,3,4-trihydronaphthalen-1-one] | 5 nM |
| C=CCc1c(OC(Cn2ccnc2)c2c(Cl)cccc2Cl)ccc2c1CCCC2=O (racemic) [Compound 60, (±)-6-[0-(2,6-Dichlorophenyl)-2-imidazolylethoxy]-5-prop-2-enyl-2,3,4-trihydronaphthalen-1-one, Trifluoroacetic Acid] | 29 nM |
| O=C1CCCc2c1ccc(O[C@H](Cn1ccnc1)c1ccccc1)c2CSc1ccccn1 [Compound 9, 6-((1S)-2-Imidazolyl-1-phenylethoxy)-5-(2-pyridylthiomethyl)-2,3,4-trihydronaphthalen-1-one] | 4 nM |
| CC(C)(Cn1ccnc1)Oc1ccc2c(c1CCc1ccccc1)CCCC2=O [Compound 58a, 6-[2-(1H-Imidazol-1-yl)-1,1-dimethylethoxy]-5-(2-phenylethyl)-3,4-dihydro-1(2H)-naphthalenone] | 1.6 nM |
| O=C(NCCO)c1ccccc1SCc1c(O[C@H](Cn2ccnc2)c2ccccc2)ccc2c1CCCC2=O [Compound 173, N-(2-Hydroxyethyl)-2-{[(2-{[(1S)-2-(1H-imidazol-1-yl)-1-phenylethyl]oxy}-5-oxo-5,6,7,8-tetrahydro-1-naphthalenyl)methyl]sulfanyl}benzamide] | 4 nM |

Continued, values first:

| IC50 | SMILES |
| --- | --- |
| 1.1 nM | COc1ccc(S(=O)(=O)NCc2c(O[C@H](Cn3ccnc3)c3ccccc3)ccc3c2CCCC3=O)cc1 [Compound 42a, N-[2-((S)-2-Imidazol-1-yl-1-phenyl-ethoxy)-5-oxo-5,6,7,8-tetrahydro-naphthalen-1-ylmethyl]-4-methoxy-benzenesulfonamide] |
| 4 nM | O=C1CCCc2c1ccc(O[C@H](Cn1ccnc1)c1ccccc1)c2COc1ccc2c(c1)OCO2 [Compound 92, 6-((1S)-2-imidazolyl-1-phenylethoxy)-5-(2H-benzo[d]1,3-dioxolan-5-yloxymethyl)-2,3,4-trihydronaphthalen-1-one] |
| 1 nM | O=C1CCCc2c1ccc(O[C@H](Cn1ccnc1)c1ccccc1)c2NS(=O)(=O)Cc1ccccc1 [Compound 39, N-[2-((S)-2-Imidazol-1-yl-1-phenyl-ethoxy)-5-oxo-5,6,7,8-tetrahydro-naphthalen-1-yl]-1-phenyl-methanesulfonamide] |
| 2 nM | O=C1CCC(c2cccc(Cl)c2)c2cc(O[C@H](Cn3ccnc3)c3ccccc3)ccc21 (stereo partly drawn) [Compound 47, 6-((1S)-2-Imidazolyl-1-phenylethoxy)-4-(3-chlorophenyl)-2,3,4-trihydronaphthalen-1-one] |
| 0.47 nM | O=C(NC1CCCC1)c1ccccc1S(=O)(=O)Cc1c(O[C@H](Cn2ccnc2)c2ccccc2)ccc2c1CCCC2=O [Compound 219, N-Cyclopentyl-2-{[(2-{[(1S)-2-(1H-imidazol-1-yl)-1-phenylethyl]oxy}-5-oxo-5,6,7,8-tetrahydro-1-naphthalenyl)methyl]sulfonyl}benzamide] |
| 0.2 nM | C=CCNC(=O)c1ccccc1SCc1c(O[C@H](Cn2ccnc2)c2ccccc2)ccc2c1CCCC2=O [Compound 208, N-Allyl-2-{[(2-{[(1S)-2-(1H-imidazol-1-yl)-1-phenylethyl]oxy}-5-oxo-5,6,7,8-tetrahydro-1-naphthalenyl)methyl]sulfanyl}benzamide] |
| 5 nM | COc1cccc(OCc2c(O[C@H](Cn3ccnc3)c3ccccc3)ccc3c2CCCC3=O)c1 [Compound 105, 6-((1S)-2-Imidazolyl-1-phenylethoxy)-5-[(3-methoxyphenoxy)methyl]-2,3,4-trihydronaphthalen-1-one] |
